According to the OligoGym collection:
These antisense oligonucleotides have a phosphorothioate backbone; sugars and methylation of C are not fully specified.

Legend:
Settings in all cases: ASO
CTNNB1 = target: CTNNB1
RELA = target: RELA
GNAI3 = target: GNAI3
MAP2K7 = target: MAP2K7
Also: test concentration or dose not given here.

Sequence | remaining target (mRNA or protein) (fraction of control) (CTNNB1) | remaining target (mRNA or protein) (fraction of control) (GNAI3) | also measured
AAACTGTGTAGATGGGATCT | 0.57 | – | –
AAAGGAGCCTCGGGCCTC | – | – | remaining target (mRNA or protein) (fraction of control) (RELA): 0.37
AAATGTGTTTCTACAATG | – | 0.9 | –
AAGGTGTCTGGTCTCAAC | – | 0.56 | –
AAGTTCCCTAATACAAAA | – | 0.85 | –
AATCAGCTTGAGTAGCCATT | 0.31 | – | –
AATGATTGAAGTTTCTGT | – | 0.73 | –
AATGTAGTTAGACTGGGA | – | 0.46 | –
AATTCCAATGTCTGACTT | – | 0.51 | –
ACAATGCCTGTGGTCTTC | – | ≥ 1 | –
ACACTGTAGTAACTTTCA | – | 0.6 | –
ACCAAGCATTTTCACCAGGG | 0.4 | – | –
ACCAGGGTGGTGGCCACCCA | 0.48 | – | –
ACCTGGAAGCAGAGCCGC | – | – | remaining target (mRNA or protein) (fraction of control) (RELA): 0.31
ACTCCACACTGTAGTAAC | – | 0.45 | –
AGAAAATCCCTGTTCCCACT | 0.32 | – | –
AGAGAATGATTGAAGTTT | – | 0.99 | –
AGAGCCGCACAGCATTCA | – | – | remaining target (mRNA or protein) (fraction of control) (RELA): 0.46
AGCAGACACCATCTGAGGAG | 0.3 | – | –
AGCCAGAACAAGGTCATA | – | 0.88 | –
AGCCCACCAGCTAAACGCAC | 0.4 | – | –
AGCCTGGTCCCGTGAAAT | – | – | remaining target (mRNA or protein) (fraction of control) (RELA): 0.5
AGCTGAGCTGCGGGAAGG | – | – | remaining target (mRNA or protein) (fraction of control) (RELA): 0.86

Sequence | remaining target (mRNA or protein) (fraction of control) (CTNNB1) | remaining target (mRNA or protein) (fraction of control) (GNAI3) | also measured
AGCTTGAGTAGCCATTGTCC | 0.34 | – | –
AGGCTAGGGTTTGCTAAATT | 0.47 | – | –
AGGTATGCCCTGGTTCAG | – | – | remaining target (mRNA or protein) (fraction of control) (RELA): 0.61
AGGTCATAATCACTGAGG | – | 0.75 | –
AGGTCCCAGCGGTACAACGA | 0.21 | – | –
AGGTGCATGATTTGCGGGAC | 0.62 | – | –
AGTAGCCATTGTCCACGCTG | 0.37 | – | –
ATCTCCTTGGTATCTTTT | – | 0.33 | –
ATCTTGCTTCGCTCCACT | – | 0.63 | –
ATGAGGAAGGACAGGCGG | – | – | remaining target (mRNA or protein) (fraction of control) (RELA): ≥ 1
ATGCAGCACCTCAACTTC | – | 0.4 | –
ATGCGTCGAGGTGGAGGC | – | – | remaining target (mRNA or protein) (fraction of control) (RELA): 0.6
ATGGAGGAGAAGTCTTCA | – | – | remaining target (mRNA or protein) (fraction of control) (RELA): ≥ 1
ATGGGTCCCGCACTGTCA | – | – | remaining target (mRNA or protein) (fraction of control) (RELA): 0.38
ATTGTTTACATTCATCCT | – | ≥ 1 | –
CAAAACAAGGTTCCAAATAA | 0.56 | – | –
CAAAGATGGGATGAGGAA | – | – | remaining target (mRNA or protein) (fraction of control) (RELA): ≥ 1
CAAATCAGCTTGAGTAGCCA | 0.49 | – | –
CAATAAAGTCCACATTCC | – | ≥ 1 | –
CAATCTTTAGCCGTCCCA | – | 0.49 | –
CAATGTCCTCTTTCTGCA | – | – | remaining target (mRNA or protein) (fraction of control) (RELA): 0.78
CAGGTCCCGCTTCTTCAC | – | – | remaining target (mRNA or protein) (fraction of control) (RELA): 0.33
CATCTTGCTGAGTTGGAA | – | 0.34 | –

Sequence | remaining target (mRNA or protein) (fraction of control) (CTNNB1) | remaining target (mRNA or protein) (fraction of control) (GNAI3) | also measured
CATGAGACAGCAAAAGGT | – | 0.92 | –
CATTGTCCACGCTGGATTTT | 0.72 | – | –
CCACCATCTCGCCATAAC | – | 0.77 | –
CCATGCTTCTCAATAAAG | – | 0.58 | –
CCCATAGGAAACTCAGCTTG | 0.29 | – | –
CCCCTCGCTCTCCGCTCCCG | 0.07 | – | –
CCTCTCAGCAACTCTACAGG | 0.24 | – | –
CCTCTGATAACAATTCGGTT | 0.52 | – | –
CCTGGTCCTGTGTAGCCA | – | – | remaining target (mRNA or protein) (fraction of control) (RELA): 0.78
CGACCTGCGGTGGCGGCTCG | 0.36 | – | –
CGCGCACCGCCCGGCCGCCC | – | – | remaining target (mRNA or protein) (fraction of control) (MAP2K7): 0.46
CGTAGTCCCCACGCTGCT | – | – | remaining target (mRNA or protein) (fraction of control) (RELA): 0.29
CGTCAGTCCGGCAGACAAAC | – | – | remaining target (mRNA or protein) (fraction of control) (MAP2K7): 0.91
CTAAAGGATGATTTACAGGT | 0.54 | – | –
CTCAACACTCCACACTGT | – | 0.9 | –
CTCAATGATCTCCACATA | – | – | remaining target (mRNA or protein) (fraction of control) (RELA): ≥ 1
CTCATAGAAGCCATCCCG | – | – | remaining target (mRNA or protein) (fraction of control) (RELA): 0.69
CTGAGGATGGCGAGCGGCTG | – | – | remaining target (mRNA or protein) (fraction of control) (MAP2K7): ≥ 1
CTGCCGGGAAGATGAGGG | – | – | remaining target (mRNA or protein) (fraction of control) (RELA): 0.84
CTGGCTCAAGGAACGCCGTT | – | – | remaining target (mRNA or protein) (fraction of control) (MAP2K7): ≥ 1
CTGGTCAGCTCAACTGAAAG | 0.41 | – | –
CTGTCAGAGGAGCTGTGGCT | 0.64 | – | –
CTTCTCAATAAAGTCCAC | – | 0.65 | –
